# Data published in PubChem BioAssay (NCI).
#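 Grown in 96-well plates, cells were treated for 48 hours with each compound at five concentrations. Insufficient inhibition: endpoint recorded as highest concentration tested. Here, GI50 denotes the concentration required for 50% inhibition of growth. TGI denotes the concentration required for complete inhibition of growth.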
# What was measured:
# Experiment in all cases: NCI tumour cell line growth inhibition, 48 h
# 786-0 renal = tested on: 786-0 renal
# A498 renal = tested on: A498 renal
# A549 NSCLC = tested on: A549 NSCLC
# ACHN renal = tested on: ACHN renal
# BT-549 breast = tested on: BT-549 breast
# CAKI-1 renal = tested on: CAKI-1 renal
# CCRF-CEM leukemia = tested on: CCRF-CEM leukemia
# COLO 205 colon = tested on: COLO 205 colon
# DU-145 prostate = tested on: DU-145 prostate
# EKVX NSCLC = tested on: EKVX NSCLC
# HCC-2998 colon = tested on: HCC-2998 colon
# HCT-116 colon = tested on: HCT-116 colon
# HCT-15 colon = tested on: HCT-15 colon
# HL-60(TB) leukemia = tested on: HL-60(TB) leukemia
# HOP-62 NSCLC = tested on: HOP-62 NSCLC
# HOP-92 NSCLC = tested on: HOP-92 NSCLC
# HS 578T breast = tested on: HS 578T breast
# HT29 colon = tested on: HT29 colon
# IGROV1 ovarian = tested on: IGROV1 ovarian
# K-562 leukemia = tested on: K-562 leukemia
# KM12 colon = tested on: KM12 colon
# LOX IMVI melanoma = tested on: LOX IMVI melanoma
# M14 melanoma = tested on: M14 melanoma
# MALME-3M melanoma = tested on: MALME-3M melanoma
# MCF7 breast = tested on: MCF7 breast
# MDA-MB-231 breast = tested on: MDA-MB-231 breast
# MDA-MB-435 = tested on: MDA-MB-435
# MDA-MB-468 breast = tested on: MDA-MB-468 breast
# MOLT-4 leukemia = tested on: MOLT-4 leukemia
# NCI-H226 lung = tested on: NCI-H226 lung
# NCI-H23 lung = tested on: NCI-H23 lung
# NCI-H460 lung = tested on: NCI-H460 lung
# NCI-H522 lung = tested on: NCI-H522 lung
# OVCAR-3 ovarian = tested on: OVCAR-3 ovarian
# OVCAR-4 ovarian = tested on: OVCAR-4 ovarian
# OVCAR-5 ovarian = tested on: OVCAR-5 ovarian
# OVCAR-8 ovarian = tested on: OVCAR-8 ovarian
# PC-3 prostate = tested on: PC-3 prostate
# RPMI-8226 leukemia = tested on: RPMI-8226 leukemia
# RXF 393 renal = tested on: RXF 393 renal
# SF-268 CNS = tested on: SF-268 CNS
# SF-295 CNS = tested on: SF-295 CNS
# SF-539 CNS = tested on: SF-539 CNS
# SK-MEL-2 melanoma = tested on: SK-MEL-2 melanoma
# SK-MEL-28 melanoma = tested on: SK-MEL-28 melanoma
# SK-MEL-5 melanoma = tested on: SK-MEL-5 melanoma
# SK-OV-3 ovarian = tested on: SK-OV-3 ovarian
# SN12C renal = tested on: SN12C renal
# SNB-19 CNS = tested on: SNB-19 CNS
# SNB-75 CNS = tested on: SNB-75 CNS
# SR leukemia = tested on: SR leukemia
# SW-620 colon = tested on: SW-620 colon
# T-47D breast = tested on: T-47D breast
# TK-10 renal = tested on: TK-10 renal
# U251 CNS = tested on: U251 CNS
# UACC-257 melanoma = tested on: UACC-257 melanoma
# UACC-62 melanoma = tested on: UACC-62 melanoma
# UO-31 renal = tested on: UO-31 renal
smiles,measurement,setting,value
N#Cc1c(-c2ccc(Br)cc2)nc2n[nH]c(-c3ccc(Br)cc3)c2c1-c1ccc(C(F)(F)F)cc1,GI50,786-0 renal,7.85 µM
same,TGI,786-0 renal,28.1 µM
same,GI50,A498 renal,15.1 µM
same,TGI,A498 renal,45.2 µM
same,GI50,A549 NSCLC,4.62 µM
same,TGI,A549 NSCLC,> 100 µM
same,GI50,ACHN renal,3.26 µM
same,TGI,ACHN renal,14.3 µM
same,GI50,BT-549 breast,2.56 µM
same,TGI,BT-549 breast,8.18 µM
same,GI50,CAKI-1 renal,4.01 µM
same,TGI,CAKI-1 renal,24.2 µM
same,GI50,CCRF-CEM leukemia,3.05 µM
same,TGI,CCRF-CEM leukemia,13 µM
same,GI50,COLO 205 colon,3.88 µM
same,TGI,COLO 205 colon,15.9 µM
same,GI50,DU-145 prostate,5.45 µM
same,TGI,DU-145 prostate,> 100 µM
same,GI50,EKVX NSCLC,3.05 µM
same,TGI,EKVX NSCLC,27.3 µM
same,GI50,HCC-2998 colon,5.27 µM
same,TGI,HCC-2998 colon,27.1 µM
same,GI50,HCT-116 colon,3.42 µM
same,TGI,HCT-116 colon,73.2 µM
same,GI50,HCT-15 colon,3.29 µM
same,TGI,HCT-15 colon,19.1 µM
same,GI50,HL-60(TB) leukemia,2.03 µM
same,TGI,HL-60(TB) leukemia,6.13 µM
same,GI50,HOP-62 NSCLC,14.1 µM
same,TGI,HOP-62 NSCLC,44.7 µM
same,GI50,HOP-92 NSCLC,1.65 µM
same,TGI,HOP-92 NSCLC,4.73 µM
same,GI50,HS 578T breast,10.2 µM
same,TGI,HS 578T breast,49.1 µM
same,GI50,HT29 colon,3.84 µM
same,TGI,HT29 colon,35.7 µM
same,GI50,IGROV1 ovarian,2.71 µM
same,TGI,IGROV1 ovarian,15.4 µM
same,GI50,K-562 leukemia,2.61 µM
same,TGI,K-562 leukemia,10.3 µM
same,GI50,KM12 colon,4.4 µM
same,TGI,KM12 colon,26.8 µM
same,GI50,LOX IMVI melanoma,3.45 µM
same,TGI,LOX IMVI melanoma,> 100 µM
same,GI50,M14 melanoma,5.24 µM
same,TGI,M14 melanoma,23.7 µM
same,GI50,MALME-3M melanoma,2.34 µM
same,TGI,MALME-3M melanoma,6.47 µM
same,GI50,MCF7 breast,3.13 µM
same,TGI,MCF7 breast,24 µM
same,GI50,MDA-MB-231 breast,5.37 µM
same,TGI,MDA-MB-231 breast,19.3 µM
same,GI50,MDA-MB-435,4.03 µM
same,TGI,MDA-MB-435,21.4 µM
same,GI50,MDA-MB-468 breast,3.44 µM
same,TGI,MDA-MB-468 breast,15.5 µM
same,GI50,MOLT-4 leukemia,1.89 µM
same,TGI,MOLT-4 leukemia,6.02 µM
same,GI50,NCI-H226 lung,3.07 µM
same,TGI,NCI-H226 lung,18 µM
same,GI50,NCI-H23 lung,4.31 µM
same,TGI,NCI-H23 lung,> 100 µM
same,GI50,NCI-H460 lung,3.62 µM
same,TGI,NCI-H460 lung,19.4 µM
same,GI50,NCI-H522 lung,3.78 µM
same,TGI,NCI-H522 lung,36.9 µM
same,GI50,OVCAR-3 ovarian,5.32 µM
same,TGI,OVCAR-3 ovarian,34.3 µM
same,GI50,OVCAR-4 ovarian,4.02 µM
same,TGI,OVCAR-4 ovarian,25.6 µM
same,GI50,OVCAR-5 ovarian,7.58 µM
same,TGI,OVCAR-5 ovarian,26.9 µM
same,GI50,OVCAR-8 ovarian,12.5 µM
same,TGI,OVCAR-8 ovarian,> 100 µM
same,GI50,PC-3 prostate,1.95 µM
same,TGI,PC-3 prostate,12.4 µM
same,GI50,RPMI-8226 leukemia,2.35 µM
same,TGI,RPMI-8226 leukemia,10.4 µM
same,GI50,RXF 393 renal,6.93 µM
same,TGI,RXF 393 renal,28.4 µM
same,GI50,SF-268 CNS,7.91 µM
same,TGI,SF-268 CNS,> 100 µM
same,GI50,SF-295 CNS,2.61 µM
same,TGI,SF-295 CNS,10.1 µM
same,GI50,SF-539 CNS,5.35 µM
same,TGI,SF-539 CNS,22.2 µM
same,GI50,SK-MEL-2 melanoma,10.1 µM
same,TGI,SK-MEL-2 melanoma,23.6 µM
same,GI50,SK-MEL-28 melanoma,6.79 µM
same,TGI,SK-MEL-28 melanoma,26.3 µM
same,GI50,SK-MEL-5 melanoma,3.29 µM
same,TGI,SK-MEL-5 melanoma,10.8 µM
same,GI50,SK-OV-3 ovarian,14.2 µM
same,TGI,SK-OV-3 ovarian,69.1 µM
same,GI50,SN12C renal,3.3 µM
same,TGI,SN12C renal,15.8 µM
same,GI50,SNB-19 CNS,4.53 µM
same,TGI,SNB-19 CNS,33.3 µM
same,GI50,SNB-75 CNS,12.6 µM
same,TGI,SNB-75 CNS,43.9 µM
same,GI50,SR leukemia,2.5 µM
same,TGI,SR leukemia,7.71 µM
same,GI50,SW-620 colon,4.39 µM
same,TGI,SW-620 colon,> 100 µM
same,GI50,T-47D breast,3.39 µM
same,TGI,T-47D breast,93.9 µM
same,GI50,TK-10 renal,19.7 µM
same,TGI,TK-10 renal,58.3 µM
same,GI50,U251 CNS,6.23 µM
same,TGI,U251 CNS,62.4 µM
same,GI50,UACC-257 melanoma,13.3 µM
same,TGI,UACC-257 melanoma,62.6 µM
same,GI50,UACC-62 melanoma,2.61 µM
same,TGI,UACC-62 melanoma,13.3 µM
same,GI50,UO-31 renal,2.07 µM
same,TGI,UO-31 renal,14.9 µM
